In patent US10265321B2, “Uses of salt-inducible kinase (SIK) inhibitors” (Dana-Farber Cancer Institute, Inc., priority 2014, dated 2019):

Key:
SIK3 = target: T1, SIK3 (Homo sapiens, UniProt Q9Y2K2); assay: Protein kinase assay ([γ-32P] ATP, phosphocellulose paper) against SIK3; assay type: biochemical; conditions: for remaining activity at 0.1 µM / remaining activity at 1 µM: DMSO set to 100%; for remaining activity at 0.1 µM: read-out: Activity of protein kinase treated with 0.1 μM of I-1 (% control (DMSO)) SIK3; for remaining activity at 1 µM: read-out: Activity of protein kinase treated with 1 μM of I-1 (% control (DMSO)) SIK3; for IC50: read-out: Enzyme Inhibition IC50 SIK3
T1 construct: made in house
Experimental: (§1) Bone marrow-derived DCs were differentiated from C57BL/6 bone marrow in the presence of GM-CSF-conditioned media. CD11c^+ CX3CR1^hi myeloid cells and CD11c^+ CX3CR1^− DCs were isolated from the small intestine lamina propria of Cx3cr1^eGFP/+ mice (12). Detection of cell-surface Thy1.1 expression on BMDCs from 10BiT reporter mice was conducted as described previously (24). Cell viability was estimated by change in total cellular ATP levels using CellTiterGlo assays (Promega). Preparation of recombinant SIK proteins and IC50 measurements were conducted as described previously (21). Total RNA was extracted using a NucleoSpin 96 RNA isolation kit (Macherey-Nagel) followed by cDNA synthesis and multiplex RT-PCR using a microfluidic dynamic array (Fluidigm). The concentrations of TNF-α, IL-6, IL-10, IL-12p40, IL-1β and RANTES in culture supernatants were detected using a FlexSet Cytometric bead array (BD Biosciences). Alternatively, IL-10 secretion was quantified using ELISA (BD Biosciences) or AlphaLISA (PerkinElmer) assays. NO production was estimated based on nitrate content in culture medium using the Greiss reagent.
In another set of experiments, the activities of the SIK inhibitors described herein against SIK were determined according to the methods reported in Hastie et al., Nature Protocols, 2006, 1, 968-971.
This buffer consisted of 50 mM Tris-HCl, pH 7.5, 0.1 mM EGTA, 1 mg ml^−1 bovine serum albumin and 0.1% (vol/vol) 2-mercaptoethanol.
An assay buffer of 500 mM Tris-HCl, pH 7.5, 1 mM EGTA, and 100 mM magnesium acetate was used for the protein kinase assay.
The specific activity of the [γ-^32P] ATP solution was 1×10^5 to 1×10^6 c.p.m. per nmol depending on what was needed to produce an optimal signal/noise ratio. Stocks of nonradioactive (“cold”) ATP were dissolved in 10 mM HEPES, and the pH of the resulting stock solutions was adjusted to 7.4. To measure the concentration of ATP, a sample of such a stock solution was diluted to 20 μM, and the absorbance of the diluted sample was measured at 259 nm. The absorbance of a 20-μM stock solution of ATP at 259 nm was about 0.31. The 1-mM solution of cold ATP was “spiked” with [γ-^32P] ATP to produce a radioactivity of 1×10^5 to 1×10^6 c.p.m. per nmol.
1) The number of assay samples needed was determined based on, e.g., the following considerations: (i) each condition was assayed in duplicate; (ii) two controls containing peptide or protein substrate and ATP but no SIK were included to assess contamination by any free ATP not incorporated into substrate, alongside two controls lacking a peptide or protein substrate but containing ATP and SIK to correct for any incorporation of phosphate into the kinase itself (e.g., autophosphorylation); and (iii) a maximum of 40 samples were assayed manually at one time by a single person. Microcentrifuge tubes were label distinctly and were placed on ice.
4) Dilute the SIK in enzyme dilution buffer and place on ice.
5) Pipette 5 j±l of 10× concentrated assay buffer, 5 j±l peptide or protein substrate (the two “no-substrate” control tubes had 5 j±l water added instead of peptide or protein substrate), and 30 μl distilled water into each tube. Keep the tubes on ice.
6) Add 5 μl diluted SIK to each tube, except for the two “no-enzyme” control tubes, which had 5 μl enzyme dilution buffer added, and still keeping the tubes on ice. In some cases, premixed “cocktails” of assay components were prepared containing peptide or protein substrate, assay buffer, and distilled water to limit the number of additions to each assay tube. Each of steps 7 to 14 was done behind a plexiglass shield.
7) Insert each tube into the water bath at intervals of 15 s to allow the assay mixture to reach 30° C. Begin the SIK reactions by adding 5 μl of 1 mM [γ-^32P] ATP to each tube at intervals of 15 s. Close each tube, vortex for 1 s to mix the contents and immediately replace in a rack in the water bath. Incubate for 10 min at 30° C. […]

BMDCs = assay: Cell viability of BMDCs (CellTiter-Glo, cellular ATP); assay type: cell-based, mouse; conditions: Mus musculus, BMDC; zymosan-stimulated BMDCs; read-out: Viability loss EC50
Experimental: as §1
BMDCs were seeded into black 384-well plates (Corning) at 20,000 cells/well in 40 μL complete DMEM using a Multidrop COMBI (Thermal Scientific) followed by incubation at 37° C. for 2 hr to allow for plate adherence. SIK inhibitors (100 nL/well) were pin-transferred from concentrated DMSO stocks using CyBi-Well Vario (CyBio) into duplicate plates. For each treatment plate, 32 out of 384 wells were pinned with DMSO as negative control and 32 out of 384 wells were pinned with PGE2 (5 μM final concentration). Two days after SIK inhibitor treatment, BMDCs were stimulated with zymosan (4 μg/mL final concentration) dispersed in culture medium (20 μL/well) using a Multidrop COMBI. After 18 hr, 5 μL of resulting supernatant was transferred from the culture plate to white 384-well AlphaLISA plates (Perkin Elmer) using a CyBi-Well Vario. IL-10 abundance in the supernatants was determined using an AlphaLISA assay (PerkinElmer) according to the manufacture's protocol and signal intensity measured using an EnVision multimode plate reader. SIK inhibitor activity was expressed as a % of the differences between the mean abundance of IL-10 in PGE2 versus DMSO wells on a per plate basis. Cell viability assays were conducted on the same tissue culture plates as the IL-10 assay. First media was removed and replaced by solution of 50% (vol/vol) CellTiter-Glo (Promega) in PBS. Luminescence was read using an Envision multimode plate reader, and signal intensity calculated relative to DMSO control wells on a per plate basis.

T1 sequence (Q9Y2K2 whole entry): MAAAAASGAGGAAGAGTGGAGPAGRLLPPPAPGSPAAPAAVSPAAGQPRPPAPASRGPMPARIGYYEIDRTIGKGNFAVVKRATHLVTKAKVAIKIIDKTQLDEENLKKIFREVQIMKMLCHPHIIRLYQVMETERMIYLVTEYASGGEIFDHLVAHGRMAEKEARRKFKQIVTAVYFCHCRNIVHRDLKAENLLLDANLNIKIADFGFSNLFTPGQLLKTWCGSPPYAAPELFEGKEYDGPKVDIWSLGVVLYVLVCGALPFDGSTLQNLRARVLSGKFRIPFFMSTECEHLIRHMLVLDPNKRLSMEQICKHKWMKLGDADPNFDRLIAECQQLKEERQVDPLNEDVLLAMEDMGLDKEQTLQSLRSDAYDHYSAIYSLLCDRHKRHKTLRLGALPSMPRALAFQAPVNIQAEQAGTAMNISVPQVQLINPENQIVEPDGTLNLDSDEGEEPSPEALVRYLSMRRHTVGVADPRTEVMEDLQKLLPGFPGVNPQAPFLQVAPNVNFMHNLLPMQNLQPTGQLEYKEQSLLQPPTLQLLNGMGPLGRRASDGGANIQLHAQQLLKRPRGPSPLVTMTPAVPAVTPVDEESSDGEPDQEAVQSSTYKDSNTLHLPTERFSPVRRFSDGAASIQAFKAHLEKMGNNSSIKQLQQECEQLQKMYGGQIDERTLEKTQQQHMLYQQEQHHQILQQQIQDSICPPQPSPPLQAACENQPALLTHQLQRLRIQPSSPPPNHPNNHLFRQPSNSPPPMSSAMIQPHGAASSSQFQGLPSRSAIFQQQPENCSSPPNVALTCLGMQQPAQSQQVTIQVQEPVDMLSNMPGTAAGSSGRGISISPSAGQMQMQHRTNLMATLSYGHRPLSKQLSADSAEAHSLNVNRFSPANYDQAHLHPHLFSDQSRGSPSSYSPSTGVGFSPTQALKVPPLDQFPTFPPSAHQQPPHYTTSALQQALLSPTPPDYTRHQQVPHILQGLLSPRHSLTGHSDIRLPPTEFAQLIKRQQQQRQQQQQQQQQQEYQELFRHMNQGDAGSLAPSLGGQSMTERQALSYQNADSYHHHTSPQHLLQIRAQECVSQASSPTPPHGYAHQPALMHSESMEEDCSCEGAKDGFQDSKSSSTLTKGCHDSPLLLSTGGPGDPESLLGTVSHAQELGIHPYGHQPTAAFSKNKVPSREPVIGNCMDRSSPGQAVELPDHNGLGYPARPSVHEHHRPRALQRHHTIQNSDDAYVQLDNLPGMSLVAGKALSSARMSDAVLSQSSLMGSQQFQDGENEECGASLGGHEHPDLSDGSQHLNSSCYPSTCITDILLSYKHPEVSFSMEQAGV

remaining activity at 0.1 µM (SIK3) | remaining activity at 1 µM (SIK3) | IC50 (SIK3) | Compound | EC50 (BMDCs)
33% | 13% | 89.1 nM | Cc1cccc(C)c1NC(=O)N1C/C=C\COc2cccc(c2)Nc2cc1ncn2 [I-1] | 10000 nM
45% | 16% | 120 nM | CCN1CCN(c2ccc(Nc3cc(-n4ccnc4Nc4c(C)cccc4C)ncn3)cc2)CC1 [II-1, 6-(2-((2,6-dimethylphenyl)amino)-1H-imidazol-1-yl)-N-(4-(4-ethylpiperazin-1-yl)phenyl)pyrimidin-4-amine] | 19.5 nM
